Experimental data as given in ChEMBL document CHEMBL2203047, “Discovery and SAR of a novel series of non-MPEP site mGlu₅ PAMs based on an aryl glycine sulfonamide scaffold” (Bioorg Med Chem Lett, 2012).
Active and inactive are the calls of the source. The rule behind the calls is not given here.

Experiments:
[1] = target: T1, Metabotropic glutamate receptor 5 (Rattus norvegicus, UniProt P31424); assay: Ago-positive allosteric modulation of rat mGlu5 receptor expressed in HEK293 cells by fluorescence-based calcium flux assay; format: functional, cell-based
[2] = target: Metabotropic glutamate receptor 5 (Rattus norvegicus) (UniProt P31424); assay: Ago-positive allosteric modulation of rat mGlu5 receptor expressed in HEK293 cells by fluorescence-based calcium flux assay relative to glutamate; format: functional, cell-based
[3] = target: Metabotropic glutamate receptor 4 (Homo sapiens) (UniProt Q14833); assay: Positive allosteric modulation of mGluR4
Sequence of Metabotropic glutamate receptor 4 (Homo sapiens) (Q14833 whole entry): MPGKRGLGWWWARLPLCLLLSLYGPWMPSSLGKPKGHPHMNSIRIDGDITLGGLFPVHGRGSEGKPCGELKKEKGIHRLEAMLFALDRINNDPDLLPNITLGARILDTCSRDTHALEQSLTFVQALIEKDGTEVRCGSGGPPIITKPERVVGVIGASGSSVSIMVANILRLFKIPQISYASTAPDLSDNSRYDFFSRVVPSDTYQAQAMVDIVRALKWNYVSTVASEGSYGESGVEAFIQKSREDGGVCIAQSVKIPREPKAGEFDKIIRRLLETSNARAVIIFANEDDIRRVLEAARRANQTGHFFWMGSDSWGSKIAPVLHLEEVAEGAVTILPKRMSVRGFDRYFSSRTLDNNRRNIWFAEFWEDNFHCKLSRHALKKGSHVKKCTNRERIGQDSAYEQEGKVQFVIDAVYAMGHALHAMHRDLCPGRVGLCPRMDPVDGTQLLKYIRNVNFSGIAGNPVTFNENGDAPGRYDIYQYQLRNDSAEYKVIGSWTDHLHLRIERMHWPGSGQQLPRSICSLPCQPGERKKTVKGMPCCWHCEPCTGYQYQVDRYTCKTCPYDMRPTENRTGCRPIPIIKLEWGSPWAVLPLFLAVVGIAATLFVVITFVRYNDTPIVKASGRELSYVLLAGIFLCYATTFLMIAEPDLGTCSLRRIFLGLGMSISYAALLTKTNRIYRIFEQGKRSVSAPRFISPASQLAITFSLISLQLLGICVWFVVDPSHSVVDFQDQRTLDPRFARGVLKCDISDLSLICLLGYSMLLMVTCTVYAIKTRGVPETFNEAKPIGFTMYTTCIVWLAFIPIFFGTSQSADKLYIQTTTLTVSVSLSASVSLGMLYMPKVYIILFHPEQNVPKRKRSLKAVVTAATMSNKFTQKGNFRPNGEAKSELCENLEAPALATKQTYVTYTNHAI

[4] = target: Metabotropic glutamate receptor 1 (Homo sapiens) (UniProt Q13255); assay: Positive allosteric modulation of mGluR1
Sequence of Metabotropic glutamate receptor 1 (Homo sapiens) (Q13255 19-1194 limits assumed): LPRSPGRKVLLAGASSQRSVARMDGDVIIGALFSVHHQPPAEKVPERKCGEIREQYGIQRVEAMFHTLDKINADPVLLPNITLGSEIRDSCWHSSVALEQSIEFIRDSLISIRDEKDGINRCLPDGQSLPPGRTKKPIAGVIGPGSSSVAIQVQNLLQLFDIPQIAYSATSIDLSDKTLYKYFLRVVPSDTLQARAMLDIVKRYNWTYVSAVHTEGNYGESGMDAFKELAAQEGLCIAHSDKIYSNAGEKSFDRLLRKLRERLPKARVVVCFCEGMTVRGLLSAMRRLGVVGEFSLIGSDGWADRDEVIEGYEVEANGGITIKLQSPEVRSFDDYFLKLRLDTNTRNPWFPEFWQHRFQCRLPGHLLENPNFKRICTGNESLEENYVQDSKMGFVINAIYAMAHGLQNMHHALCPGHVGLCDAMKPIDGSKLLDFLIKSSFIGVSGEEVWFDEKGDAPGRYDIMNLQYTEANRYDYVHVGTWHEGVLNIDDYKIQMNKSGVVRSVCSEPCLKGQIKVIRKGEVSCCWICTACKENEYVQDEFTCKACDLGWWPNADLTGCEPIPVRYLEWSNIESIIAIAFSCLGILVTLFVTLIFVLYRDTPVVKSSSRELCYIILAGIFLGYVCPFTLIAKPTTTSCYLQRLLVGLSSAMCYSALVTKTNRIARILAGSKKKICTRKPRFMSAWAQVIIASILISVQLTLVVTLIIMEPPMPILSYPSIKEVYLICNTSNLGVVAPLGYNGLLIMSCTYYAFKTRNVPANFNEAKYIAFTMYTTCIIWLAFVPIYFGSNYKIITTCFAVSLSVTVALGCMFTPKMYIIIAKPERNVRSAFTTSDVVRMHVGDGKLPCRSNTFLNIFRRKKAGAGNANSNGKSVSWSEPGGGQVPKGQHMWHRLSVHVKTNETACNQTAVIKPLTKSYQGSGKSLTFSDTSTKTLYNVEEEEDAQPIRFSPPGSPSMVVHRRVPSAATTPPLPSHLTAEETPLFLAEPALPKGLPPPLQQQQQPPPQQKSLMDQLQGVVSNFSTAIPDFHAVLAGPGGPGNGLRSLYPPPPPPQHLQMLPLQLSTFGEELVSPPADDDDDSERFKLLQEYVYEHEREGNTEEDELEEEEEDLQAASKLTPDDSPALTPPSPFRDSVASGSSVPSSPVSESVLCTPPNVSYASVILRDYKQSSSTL

[5] = tested on: Liver microsomes; assay: Metabolic stability in rat liver microsomes assessed as compound remaining at 1 uM after 15 mins in presence of NADPH; format: ADME, Microsome; conditions: 0.25 h
[6] = target: Metabotropic glutamate receptor 7 (Homo sapiens) (UniProt Q14831); assay: Positive allosteric modulation of mGluR7
[7] = tested on: Plasma; assay: (§1) Fraction unbound in rat plasma at 5 uM after 4 hrs by equilibrium dialysis method; format: ADME, cell-free; conditions: 4 h, 5 µM
[8] = target: T2, Metabotropic glutamate receptor 5 (Homo sapiens, UniProt P41594); assay: Positive allosteric modulation of human mGlu5 receptor expressed in HEK293 cells by fluorescence-based calcium flux assay relative to glutamate; format: functional, cell-based
Target sequence in this assay (P41594 21-1212 limits assumed): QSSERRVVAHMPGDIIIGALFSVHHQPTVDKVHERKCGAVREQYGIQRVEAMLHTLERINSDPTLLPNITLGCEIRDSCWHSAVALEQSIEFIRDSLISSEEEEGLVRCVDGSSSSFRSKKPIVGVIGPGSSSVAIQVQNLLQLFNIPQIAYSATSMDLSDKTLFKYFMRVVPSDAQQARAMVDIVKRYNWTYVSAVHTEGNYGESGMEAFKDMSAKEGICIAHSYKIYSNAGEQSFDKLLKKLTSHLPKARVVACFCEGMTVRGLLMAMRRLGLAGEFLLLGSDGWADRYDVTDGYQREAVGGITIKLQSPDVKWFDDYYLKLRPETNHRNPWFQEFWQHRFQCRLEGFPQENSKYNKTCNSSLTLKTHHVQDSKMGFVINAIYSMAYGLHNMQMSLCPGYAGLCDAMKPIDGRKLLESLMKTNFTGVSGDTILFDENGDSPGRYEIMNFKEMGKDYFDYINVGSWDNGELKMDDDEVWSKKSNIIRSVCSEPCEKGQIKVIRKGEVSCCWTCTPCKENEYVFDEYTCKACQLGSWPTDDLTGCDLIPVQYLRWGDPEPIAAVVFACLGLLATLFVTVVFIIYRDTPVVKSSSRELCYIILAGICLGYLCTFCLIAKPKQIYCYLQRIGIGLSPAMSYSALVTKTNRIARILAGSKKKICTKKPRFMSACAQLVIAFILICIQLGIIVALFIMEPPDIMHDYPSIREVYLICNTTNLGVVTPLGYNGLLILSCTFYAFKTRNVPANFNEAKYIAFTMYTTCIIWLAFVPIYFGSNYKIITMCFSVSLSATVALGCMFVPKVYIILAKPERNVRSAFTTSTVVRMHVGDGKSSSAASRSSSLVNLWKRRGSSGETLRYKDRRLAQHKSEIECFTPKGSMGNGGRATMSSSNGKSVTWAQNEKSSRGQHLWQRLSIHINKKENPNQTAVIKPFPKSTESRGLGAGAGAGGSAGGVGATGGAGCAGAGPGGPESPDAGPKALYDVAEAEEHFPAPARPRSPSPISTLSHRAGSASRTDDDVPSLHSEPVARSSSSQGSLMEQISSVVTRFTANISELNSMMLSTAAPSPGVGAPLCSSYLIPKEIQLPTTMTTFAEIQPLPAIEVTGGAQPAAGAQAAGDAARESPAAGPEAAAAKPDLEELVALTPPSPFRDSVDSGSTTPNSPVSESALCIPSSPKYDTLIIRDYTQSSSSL

[9] = target: T2, Metabotropic glutamate receptor 5; assay: Positive allosteric modulation of human mGlu5 receptor expressed in HEK293 cells by fluorescence-based calcium flux assay; format: functional, cell-based
[10] = target: T1, Metabotropic glutamate receptor 5; assay: Displacement of [3H]-methoxyPEPy from rat mGlu5 receptor expressed in HEK293 cells after 1 hr by scintillation counting analysis; format: cell-based
[11] = target: Metabotropic glutamate receptor 2 (Homo sapiens) (UniProt Q14416); assay: Positive allosteric modulation of mGluR2
Sequence of Metabotropic glutamate receptor 2 (Homo sapiens) (Q14416 19-872 limits assumed): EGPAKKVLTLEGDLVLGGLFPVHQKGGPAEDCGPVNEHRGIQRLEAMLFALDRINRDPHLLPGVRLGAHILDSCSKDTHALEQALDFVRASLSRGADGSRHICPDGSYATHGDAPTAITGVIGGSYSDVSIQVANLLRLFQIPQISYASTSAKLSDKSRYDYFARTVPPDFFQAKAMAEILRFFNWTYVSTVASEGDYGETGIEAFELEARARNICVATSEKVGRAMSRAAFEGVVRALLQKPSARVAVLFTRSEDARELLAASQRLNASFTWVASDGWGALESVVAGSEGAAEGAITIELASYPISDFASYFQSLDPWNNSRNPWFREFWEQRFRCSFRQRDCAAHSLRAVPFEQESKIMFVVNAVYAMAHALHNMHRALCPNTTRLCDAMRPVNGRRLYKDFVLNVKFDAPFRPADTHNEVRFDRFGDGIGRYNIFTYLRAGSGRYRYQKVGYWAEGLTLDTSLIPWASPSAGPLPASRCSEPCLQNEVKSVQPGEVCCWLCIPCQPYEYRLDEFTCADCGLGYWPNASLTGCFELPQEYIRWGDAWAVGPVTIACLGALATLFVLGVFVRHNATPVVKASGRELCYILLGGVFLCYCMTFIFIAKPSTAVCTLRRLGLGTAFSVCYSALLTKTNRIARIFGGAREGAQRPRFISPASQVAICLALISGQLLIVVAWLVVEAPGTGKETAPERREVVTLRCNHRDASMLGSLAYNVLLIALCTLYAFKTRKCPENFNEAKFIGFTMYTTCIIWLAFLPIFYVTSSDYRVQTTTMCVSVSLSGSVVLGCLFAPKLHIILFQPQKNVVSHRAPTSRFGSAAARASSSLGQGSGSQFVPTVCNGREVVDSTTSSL

[12] = target: Metabotropic glutamate receptor 3 (Homo sapiens) (UniProt Q14832); assay: Positive allosteric modulation of mGluR3
Sequence of Metabotropic glutamate receptor 3 (Homo sapiens) (Q14832 23-879 limits assumed): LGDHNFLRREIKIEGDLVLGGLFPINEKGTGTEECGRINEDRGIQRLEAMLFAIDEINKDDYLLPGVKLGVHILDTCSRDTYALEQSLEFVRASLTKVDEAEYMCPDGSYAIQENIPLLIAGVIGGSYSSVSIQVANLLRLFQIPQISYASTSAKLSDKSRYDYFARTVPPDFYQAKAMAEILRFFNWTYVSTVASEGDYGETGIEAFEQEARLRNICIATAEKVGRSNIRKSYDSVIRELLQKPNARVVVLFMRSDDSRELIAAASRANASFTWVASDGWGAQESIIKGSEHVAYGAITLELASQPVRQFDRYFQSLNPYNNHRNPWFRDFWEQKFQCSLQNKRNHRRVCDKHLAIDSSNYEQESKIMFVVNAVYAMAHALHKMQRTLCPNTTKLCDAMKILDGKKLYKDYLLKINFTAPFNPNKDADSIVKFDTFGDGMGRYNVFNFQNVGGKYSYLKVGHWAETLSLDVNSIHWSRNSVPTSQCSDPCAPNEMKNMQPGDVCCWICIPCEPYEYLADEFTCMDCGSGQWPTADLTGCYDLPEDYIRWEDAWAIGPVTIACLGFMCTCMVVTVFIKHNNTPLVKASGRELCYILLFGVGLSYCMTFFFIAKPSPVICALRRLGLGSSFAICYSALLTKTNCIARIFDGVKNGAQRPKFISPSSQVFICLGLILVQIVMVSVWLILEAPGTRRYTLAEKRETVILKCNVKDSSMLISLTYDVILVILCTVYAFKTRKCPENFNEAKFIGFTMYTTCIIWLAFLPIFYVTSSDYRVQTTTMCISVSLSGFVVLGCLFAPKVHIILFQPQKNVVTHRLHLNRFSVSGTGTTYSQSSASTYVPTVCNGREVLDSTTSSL

[13] = target: Metabotropic glutamate receptor 6 (Homo sapiens) (UniProt O15303); assay: Positive allosteric modulation of mGluR6
[14] = as §1; format: ADME, cell-free
[15] = target: Metabotropic glutamate receptor 8 (Homo sapiens) (UniProt O00222); assay: Positive allosteric modulation of mGluR8
[16] = Inhibition of calcium channel
[17] = (§2) Fraction unbound in human plasma at 5 uM after 4 hrs by equilibrium dialysis method; format: ADME, cell-free
[18] = Inhibition of sodium channel
[19] = target: Voltage-gated inwardly rectifying potassium channel KCNH2 (Homo sapiens, UniProt Q12809); assay: Inhibition of human ERG
[20] = Ratio of AUC in Sprague-Dawley rat brain at 10 mg/kg, ip to AUC in Sprague-Dawley rat plasma at 10 mg/kg, ip; format: ADME, organism-based; conditions: brain and plasma, read-out: Ratio AUC
[21] = target: Metabotropic glutamate receptor 5 (Rattus norvegicus) (UniProt P31424); assay: Displacement of [3H]-methoxyPEPy from rat mGlu5 receptor expressed in HEK293 cells up to 30 uM after 1 hr by scintillation counting analysis; format: cell-based
[22] = tested on: Plasma; assay: as §2; format: ADME, cell-free; conditions: 4 h, 5 µM
[23] = tested on: HEK293; assay: Selectivity ratio of EC50 for human mGlu5 receptor expressed in HEK293 cells to EC50 for rat mGlu5 receptor expressed in HEK293 cells; format: cell-based

CS(=O)(=O)N1c2ccccc2CCC1C(=O)Nc1ccccn1 (racemic)
EC50 [1]: 1.3 µM
Emax [2]: 68%

CS(=O)(=O)N(CC(=O)Nc1ccccc1)c1ccccc1Cl
Activity [3]: > 10 µM
Activity [4]: > 10 µM
Stability [5]: <= 4%
Activity [6]: > 10 µM
Fu [7]: 0.13
Emax [8]: 77%
EC50 [1]: 0.07 µM
EC50 ([9]; read-out: EC50): 1.38 µM
Emax [2]: 61%
Ki [10]: > 10 µM
Activity [11]: > 10 µM
Activity [12]: > 10 µM
Activity [13]: > 10 µM

CS(=O)(=O)N(CC(=O)NCC1CC1)c1cc(C(F)(F)F)ccc1Cl
Activity [3]: > 10 µM
Activity [4]: > 10 µM
Activity [6]: > 10 µM
fraction unbound at 4 h, 5 µM [14]: 0.13
Emax [8]: 70%
Activity [15]: > 10 µM
EC50 [1]: 0.398 µM
EC50 ([9]; read-out: EC50): 4.5 µM
IC50 [16]: > 10 µM
Emax [2]: 61%
fraction unbound at 4 h, 5 µM [17]: 0.1
Ki [10]: > 30 µM
IC50 [18]: > 10 µM
IC50 [19]: > 10 µM
Activity [11]: > 10 µM
Activity [12]: > 10 µM
Kp [20]: 0.4
Activity [13]: > 10 µM

O=S(=O)(c1ccc(F)cc1)N1CCC[C@H](c2nc(-c3ccc(F)cc3)no2)C1
Emax [8]: 43%
EC50 [1]: 3.4 µM
EC50 ([9]; read-out: EC50): > 10 µM
Emax [2]: 84%
Activity [21]: inactive

CS(=O)(=O)N(CC(=O)Nc1ccc(F)cn1)c1ccccc1Cl
Stability [5]: 39%
Fu [7]: 0.17
EC50 [1]: 3.72 µM
Emax [2]: 66%
Fu [22]: 0.09

O=S(=O)(c1ccc(C#Cc2cccc(F)c2)cc1)N1CCOCC1
EC50 [1]: 0.457 µM
EC50 ([9]; hek293): Not Active
Emax [2]: 55%
Activity [21]: inactive

CC(C(=O)Nc1cccc(Cl)c1)N(c1ccccc1Cl)S(C)(=O)=O (racemic)
EC50 [1]: 0.068 µM
Emax [2]: 43%

CS(=O)(=O)N1c2ccccc2CCC1C(=O)Nc1cccc(Cl)c1 (racemic)
EC50 [1]: 1 µM
Emax [2]: 60%

CCCC(C(=O)Nc1cccc(Cl)c1)N(c1ccccc1Cl)S(C)(=O)=O (racemic)
EC50 [1]: > 10 µM

O=C(Nc1cccc(Cl)c1)[C@@H]1CCc2ccccc2N1S(=O)(=O)c1ccccc1F
EC50 [1]: 6.7 µM
Emax [2]: 78%

O=C(Nc1ccc(Cl)cc1CN1C(=O)c2ccccc2C1=O)c1ccccc1O
Ratio EC50 [23]: 3

Cn1cnc(S(=O)(=O)N2c3ccccc3CCC2C(=O)Nc2cccc(Cl)c2)c1 (racemic)
EC50 [1]: > 10 µM
Emax [2]: 75%

CS(=O)(=O)N(CC(=O)Nc1cccnc1F)c1ccccc1Cl
Emax [8]: 42%
EC50 [1]: 1.74 µM
pEC50 ([9]; hek293): < 5
EC50 ([9]; read-out: EC50): > 10 µM
Emax [2]: 64%

CS(=O)(=O)N(CC(=O)Nc1cccc(Cl)c1)c1ccccc1Cl
Activity [3]: > 10 µM
Ratio EC50 [23]: 10
Activity [4]: > 10 µM
Activity [6]: > 10 µM
Emax [8]: 63%
Activity [15]: > 10 µM
EC50 [1]: 0.08 µM
EC50 ([9]; read-out: EC50): 0.78 µM
Emax [2]: 74%
Ki [10]: > 10 µM
Activity [11]: > 10 µM
Activity [12]: > 10 µM
Activity [13]: > 10 µM

CCS(=O)(=O)N1c2ccccc2CC[C@H]1C(=O)Nc1cccc(Cl)c1
EC50 [1]: 2.5 µM
Emax [2]: 74%

CCC(C(=O)Nc1cccc(Cl)c1)N(c1ccccc1Cl)S(C)(=O)=O (racemic)
EC50 [1]: 3.3 µM

CS(=O)(=O)N(CC(=O)Nc1ccc(F)nc1)c1ccccc1Cl
Emax [8]: 35%
EC50 [1]: 4.47 µM
pEC50 ([9]; hek293): < 5
EC50 ([9]; read-out: EC50): > 10 µM
Emax [2]: 72%
